Experimental data: ChEMBL document CHEMBL1136562, “Structure-activity relationships of substituted benzothiophene-anthranilamide factor Xa inhibitors” (Bioorg Med Chem Lett, 2003)

How the values were obtained:
[1] = biological target: Coagulation factor X (Homo sapiens, UniProt P00742); assay: Inhibition constant against human factor Xa; conditions: read-out: Ki app
[2] = biological target: Prothrombin (Homo sapiens, UniProt P00734); assay: Inhibition constant against human thrombin; conditions: read-out: Ki app
[3] = biological target: Cationic trypsin (Bos taurus); assay: Inhibition constant against bovine trypsin

Sequence of Coagulation factor X (P00742 41-179 limits assumed): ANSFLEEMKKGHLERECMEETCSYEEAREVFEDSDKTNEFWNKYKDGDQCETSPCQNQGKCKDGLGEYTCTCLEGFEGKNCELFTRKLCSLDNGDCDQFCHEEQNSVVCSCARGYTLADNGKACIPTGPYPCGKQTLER
Sequence of Coagulation factor X (P00742 235-488 limits assumed): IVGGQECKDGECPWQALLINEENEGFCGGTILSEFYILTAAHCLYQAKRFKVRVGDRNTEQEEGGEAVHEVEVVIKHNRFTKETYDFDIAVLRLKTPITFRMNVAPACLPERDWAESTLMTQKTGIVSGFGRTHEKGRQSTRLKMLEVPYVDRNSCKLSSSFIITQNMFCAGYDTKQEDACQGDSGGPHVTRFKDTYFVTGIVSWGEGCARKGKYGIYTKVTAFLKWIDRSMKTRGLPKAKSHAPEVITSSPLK

| Compound | Ki [1] [µM] | Ki [2] [µM] | Ki app [3] [µM] |
| --- | --- | --- | --- |
| Cc1cc(Cl)cc(C(=O)Nc2ccc(Cl)cc2)c1NC(=O)c1sc2ccccc2c1Cl | 0.0018 | > 5 |  |
| Cc1ccc(NC(=O)c2cc3ccccc3s2)c(C(=O)Nc2ccc(F)cc2)c1 | 0.59 | > 5 |  |
| O=C(Nc1ccc(Cl)cc1)c1ccc(C(F)(F)F)cc1NC(=O)c1sc2ccccc2c1Cl | 0.1 | > 5 | > 5 |
| Cc1ccc(NC(=O)c2sccc2Cl)c(C(=O)Nc2ccc(Cl)cc2)c1 | 0.13 | > 5 |  |
| CN1CCN(c2ccc(NC(=O)c3sc4ccccc4c3Cl)c(C(=O)Nc3ccc(Cl)cc3)c2)CC1 | 0.47 | > 5 | > 5 |
| Cc1ccc(NC(=O)c2sccc2Cl)c(C(=O)Nc2ccc(F)cc2)c1 | 0.39 | > 5 | > 5 |
| Cc1ccc(NC(=O)c2sc3ccccc3c2Cl)c(C(=O)Nc2nccs2)c1 | > 5 | > 5 | > 5 |
| O=C(Nc1ccc(Cl)cc1)c1cc(N2CCCC2)ccc1NC(=O)c1sc2ccccc2c1Cl | > 5 | > 5 | > 5 |
| Cc1ccc(NC(=O)c2cccnc2C)c(C(=O)Nc2ccc(Cl)cc2)c1 | > 5 | > 5 | > 5 |
| O=C(Nc1ccc(Cl)cc1)c1cccc(O)c1NC(=O)c1sc2ccccc2c1Cl | 0.018 | > 5 |  |
| O=C(Nc1cccc(F)c1C(=O)Nc1ccc(Cl)cc1)c1sc2ccccc2c1Cl | 0.026 | > 5 | > 5 |
| COc1cc(Cl)cc(C(=O)Nc2ccc(Cl)cc2)c1NC(=O)c1sc2ccccc2c1Cl | 0.0022 | > 5 | > 5 |
| O=C(Nc1ccc(Cl)cc1)c1cccc(Cl)c1NC(=O)c1sc2ccccc2c1Cl | 0.024 | > 5 | > 5 |
| Cc1ccc(NC(=O)c2ccc3ccccc3c2)c(C(=O)Nc2ccc(Cl)cc2)c1 | 0.078 | > 5 | > 5 |
| Cc1ccc(NC(=O)c2scc(S(C)(=O)=O)c2Cl)c(C(=O)Nc2ccc(Cl)cc2)c1 | 0.014 | > 5 | > 5 |
| Cc1ccc(NC(=O)c2sc(C)nc2C)c(C(=O)Nc2ccc(Cl)cc2)c1 | 0.21 | > 5 |  |
| O=C(Nc1cccc(Cl)c1C(=O)Nc1ccc(Cl)cc1)c1sc2ccccc2c1Cl | > 5 | > 5 | > 5 |
| CSc1ncc(Cl)c(C(=O)Nc2ccc(C)cc2C(=O)Nc2ccc(Cl)cc2)n1 | > 5 | > 5 | > 5 |
| COc1ccsc1C(=O)Nc1ccc(C)cc1C(=O)Nc1ccc(Cl)cc1 | 0.16 | > 5 | > 5 |
| CCOC(=O)COc1cccc(C(=O)Nc2ccc(Cl)cc2)c1NC(=O)c1sc2ccccc2c1Cl | 0.022 | > 5 | > 5 |
| Cc1ccc(NC(=O)c2ccccc2Br)c(C(=O)Nc2ccc(Cl)cc2)c1 | 0.96 | > 5 | > 5 |
| COc1c(Br)csc1C(=O)Nc1ccc(C)cc1C(=O)Nc1ccc(Cl)cc1 | 0.054 | > 5 |  |
| O=C(Nc1ccc(Cl)cc1)c1cc(Cl)cc(O)c1NC(=O)c1sc2ccccc2c1Cl | 0.0037 | > 5 |  |
| O=C(Nc1ccc(Cl)cc1)c1cc(Cl)c(F)cc1NC(=O)c1sc2ccccc2c1Cl | 0.007 | > 5 |  |

Further lines, results first:

| Ki [1] [µM] | Ki [2] [µM] | Ki app [3] [µM] | Compound |
| --- | --- | --- | --- |
| 0.058 | > 5 | > 5 | Cc1cccc(C(=O)Nc2ccc(Cl)cc2)c1NC(=O)c1sc2ccccc2c1Cl |
| 0.011 | > 5 | > 5 | Cc1cc(NC(=O)c2sc3ccccc3c2Cl)c(C(=O)Nc2ccc(Cl)cc2)cc1Cl |
| 0.03 | > 5 | > 5 | Cc1ccc(NC(=O)c2sc3ccccc3c2Cl)c(C(=O)Nc2ccccn2)c1 |
| > 5 | > 5 | > 5 | Cc1ccc(NC(=O)c2sc3ccccc3c2Cl)c(C(=O)Nc2ccc(C(F)(F)F)cc2)c1 |
| 0.022 | > 5 |  | COc1cccc(C(=O)Nc2ccc(Cl)cc2)c1NC(=O)c1sc2ccccc2c1Cl |
| 0.0059 | > 5 | > 5 | COc1c(C(=O)Nc2ccc(C)cc2C(=O)Nc2ccc(Cl)cc2)sc2ccccc12 |
| 0.0006 | > 5 | > 5 | O=C(Nc1ccc(Cl)cc1)c1cc(Cl)ccc1NC(=O)c1sc2ccccc2c1Cl |
| 4.4 | > 5 |  | Cc1ccc(NC(=O)c2sc3ccccc3c2O)c(C(=O)Nc2ccc(Cl)cc2)c1 |
|  | > 5 |  | Cc1ccc(NC(=O)c2sc3ccccc3c2Cl)c(C(=O)Nc2ccc(Cl)cc2)c1 |
| > 5 | > 5 | > 5 | COC(=O)c1ccc(NC(=O)c2cc(C)ccc2NC(=O)c2sc3ccccc3c2Cl)cc1 |
| 0.019 | > 5 | > 5 | Cc1ccc(NC(=O)c2sc3ccccc3c2Cl)c(C(=O)Nc2ccccc2)c1 |
| 0.26 | > 5 | > 5 | Cc1ccc(NC(=O)c2sc3ccccc3c2Cl)c(C(=O)Nc2cccc(Cl)c2)c1 |
| 4.7 | > 5 | > 5 | Cc1ccc(NC(=O)c2sc3ccccc3c2Cl)c(C(=O)Nc2ccc(C(=O)O)cc2)c1 |
| 0.0023 | > 5 | > 5 | Cc1ccc(NC(=O)c2sc3ccccc3c2Cl)c(C(=O)Nc2ccc(Cl)cn2)c1 |
| 0.21 | > 5 | > 5 | Cc1ccc(NC(=O)c2sc3ccccc3c2Cl)c(C(=O)Nc2cccnc2)c1 |
| 0.005 | > 5 |  | O=C(Nc1ccc(Cl)cc1)c1cc(F)ccc1NC(=O)c1sc2ccccc2c1Cl |
| 0.073 | > 5 | > 5 | O=C(Nc1ccc(Cl)cc1)c1cc(O)ccc1NC(=O)c1sc2ccccc2c1Cl |
| 0.007 | > 5 | > 5 | O=C(Nc1ccc(Cl)cc1)c1ccccc1NC(=O)c1sc2ccccc2c1Cl |

| Ki [1] [µM] | Ki [2] [µM] | Ki app [3] [µM] | Compound |
| --- | --- | --- | --- |
| 0.28 | > 5 |  | Cc1ccc(NC(=O)c2sc3ccccc3c2Cl)c(C(=O)Nc2ccc(N)cc2)c1 |
| 0.025 | > 5 | > 5 | Cc1ccc(NC(=O)c2sc3ccccc3c2C)c(C(=O)Nc2ccc(F)cc2)c1 |
| > 0.5 | > 5 |  | O=C(Nc1ccc(Cl)cc1)c1cc([N+](=O)[O-])ccc1NC(=O)c1sc2ccccc2c1Cl |
| > 5 | > 5 | > 5 | Cc1cccc(NC(=O)c2sc3ccccc3c2Cl)c1C(=O)Nc1ccc(Cl)cc1 |
| > 5 | > 5 |  | Cc1ccc(NC(=O)c2sc3ccccc3c2Cl)c(C(=O)Nc2ccccc2Cl)c1 |
| 1.4 | > 5 | > 5 | Cc1ccc(NC(=O)c2sc3ccccc3c2Cl)c(C(=O)Nc2ccc(CN)cc2)c1 |
| 0.016 | > 5 | > 5 | COc1ccc(NC(=O)c2cc(C)ccc2NC(=O)c2sc3ccccc3c2Cl)cc1 |
| 0.026 | > 5 |  | O=C(Nc1ccc(Cl)cc1)c1ccc(Cl)cc1NC(=O)c1sc2ccccc2c1Cl |
| > 5 | > 5 | > 5 | COc1ccc(COc2ccc(NC(=O)c3sc4ccccc4c3Cl)c(C(=O)Nc3ccc(Cl)cc3)c2)cc1 |
| 0.015 | > 5 |  | O=C(Nc1ccc(Cl)cc1)c1ccc(F)cc1NC(=O)c1sc2ccccc2c1Cl |
| 0.016 | > 5 | > 5 | Nc1ccc(NC(=O)c2sc3ccccc3c2Cl)c(C(=O)Nc2ccc(Cl)cc2)c1 |
| 0.00046 | > 5 |  | Cc1ccc(NC(=O)c2sc3ccccc3c2Cl)c(C(=O)Nc2ccc(Br)cc2)c1 |
| > 5 | > 5 | > 5 | CCOc1ccc(NC(=O)c2cc(C)ccc2NC(=O)c2sc3ccccc3c2Cl)cc1 |
| 0.0071 | > 5 | > 5 | Cc1ccc(NC(=O)c2cc(C)ccc2NC(=O)c2sc3ccccc3c2Cl)cc1 |
|  | > 5 |  | Cc1ccc(NC(=O)c2sc3ccccc3c2Cl)c(C(=O)Nc2ccc(F)cc2)c1 |
| 0.15 | > 5 |  | Cc1ccc(NC(=O)c2sc3ccccc3c2Cl)c(C(=O)Nc2ccc(C#N)cc2)c1 |
| 0.0072 | > 5 | > 5 | Cc1ccc(C(=O)Nc2ccc(Cl)cc2)c(NC(=O)c2sc3ccccc3c2Cl)c1 |
